# Assay results as given in ChEMBL document CHEMBL1201862, “PubChem BioAssay data set” (2004).
#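 In this assay, cells in 96-well plates receive the compound at five concentrations for 48 hours. Endpoints are linearly interpolated between the surrounding concentrations. Abbreviation: GI50, concentration required for 50% inhibition of growth.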 Calls of active or inactive are those of the source. No stated cut-off is given here; in the data, active = GI50 up to about 1.1 µM and inactive = higher.
# Columns and labels:
# Assay in all cases: growth of human tumour cells (NCI), 48 h
# [1] = test system: HT-29
# [2] = test system: SNB-19
# [3] = test system: NCI-H460
# [4] = test system: LOX IMVI
# [5] = test system: SNB-75
# [6] = test system: TK-10
# [7] = test system: SK-MEL-5
# [8] = test system: A498
# [9] = test system: RPMI-8226
# [10] = test system: T47D
# [11] = test system: UACC-257
# [12] = test system: HCT-116
# [13] = test system: SR
# [14] = test system: M14
# [15] = test system: PC-3
# [16] = test system: SK-OV-3
# [17] = test system: NCI-H226
# [18] = test system: Hs-578T
# [19] = test system: NCI/ADR-RES
# [20] = test system: DU-145
# [21] = test system: COLO 205
# [22] = test system: BT-549
# [23] = test system: SN12C
# [24] = test system: MCF7
# [25] = test system: SF-539
# [26] = test system: U-251
# [27] = test system: SK-MEL-2
# [28] = test system: SK-MEL-28
# [29] = test system: MOLT-4
# [30] = test system: CCRF-CEM
# [31] = test system: EKVX
# [32] = test system: UACC-62
# [33] = test system: Malme-3M
# [34] = test system: 786-0
# [35] = test system: MDA-MB-231
# [36] = test system: NCI-H522
# [37] = test system: OVCAR-3
# [38] = test system: CAKI-1
# [39] = test system: IGROV-1
# [40] = test system: SF-295
# [41] = test system: ACHN
# [42] = test system: NCI-H23
# [43] = test system: HCC 2998
# [44] = test system: HOP-62
# [45] = test system: OVCAR-4
# [46] = test system: MDA-N
# [47] = test system: OVCAR-8
# [48] = test system: HCT-15
# [49] = test system: KM12
# [50] = test system: MDA-MB-435
# [51] = test system: SW-620
# [52] = test system: OVCAR-5
# [53] = test system: UO-31
# [54] = test system: A549
# [55] = test system: HL-60
# [56] = test system: SF-268
# [57] = test system: K562
compound,measurement,setting,value
COC(=O)C1Cc2ccc(C)cc2C1=O (configuration not stated),GI50,[1],> 100 µM (inactive)
same,GI50,[2],> 100 µM (inactive)
same,GI50,[3],> 100 µM (inactive)
same,GI50,[4],> 100 µM (inactive)
same,GI50,[5],> 100 µM (inactive)
same,GI50,[6],> 100 µM (inactive)
same,GI50,[7],50.7 µM (inactive)
same,GI50,[8],> 100 µM (inactive)
same,GI50,[9],> 100 µM (inactive)
same,GI50,[10],> 100 µM (inactive)
same,GI50,[11],> 100 µM (inactive)
same,GI50,[12],> 100 µM (inactive)
same,GI50,[13],> 100 µM (inactive)
same,GI50,[14],> 100 µM (inactive)
same,GI50,[15],> 100 µM (inactive)
same,GI50,[16],> 100 µM (inactive)
same,GI50,[17],> 100 µM (inactive)
same,GI50,[18],> 100 µM (inactive)
same,GI50,[19],> 100 µM (inactive)
same,GI50,[20],> 100 µM (inactive)
same,GI50,[21],> 100 µM (inactive)
same,GI50,[22],> 100 µM (inactive)
same,GI50,[23],> 100 µM (inactive)
same,GI50,[24],> 100 µM (inactive)
same,GI50,[25],> 100 µM (inactive)
same,GI50,[26],> 100 µM (inactive)
same,GI50,[27],> 100 µM (inactive)
same,GI50,[28],> 100 µM (inactive)
same,GI50,[29],> 100 µM (inactive)
same,GI50,[30],> 100 µM (inactive)
same,GI50,[31],> 100 µM (inactive)
same,GI50,[32],> 100 µM (inactive)
same,GI50,[33],> 100 µM (inactive)
same,GI50,[34],> 100 µM (inactive)
same,GI50,[35],> 100 µM (inactive)
same,GI50,[36],> 100 µM (inactive)
same,GI50,[37],> 100 µM (inactive)
same,GI50,[38],> 100 µM (inactive)
same,GI50,[39],> 100 µM (inactive)
same,GI50,[40],> 100 µM (inactive)
same,GI50,[41],> 100 µM (inactive)
same,GI50,[42],> 100 µM (inactive)
same,GI50,[43],> 100 µM (inactive)
same,GI50,[44],> 100 µM (inactive)
same,GI50,[45],> 100 µM (inactive)
same,GI50,[46],> 100 µM (inactive)
same,GI50,[47],> 100 µM (inactive)
same,GI50,[48],> 100 µM
same,GI50,[49],83.4 µM (inactive)
same,GI50,[50],> 100 µM (inactive)
same,GI50,[51],> 100 µM (inactive)
same,GI50,[52],> 100 µM (inactive)
same,GI50,[53],> 100 µM (inactive)
same,GI50,[54],> 100 µM (inactive)
same,GI50,[55],25.8 µM (inactive)
same,GI50,[56],> 100 µM (inactive)
same,GI50,[57],> 100 µM (inactive)
